According to patent publication US20250270216A1, “ANTI-INFECTIVE AGENTS” (UNIVERSITY OF DUNDEE, priority 2022, published 2025):

molecular target: Cryptosporidium parvum lysyl t-RNA synthetase (Cp KRS) (Cryptosporidium parvum, UniProt Q5CR27); test: In vitro inhibition of Cryptosporidium lysyl tRNA synthetase (KRS), Biomol green phosphate detection; type: biochemical; conditions: 300 nM CpKRS, 500 μM ATP, 1.2 mM L-Lysine, 8 h room temperature; read-out: C. parvum KRS pIC50 (converted)
Description: The protein expression and purification method for recombinant CpKRS was described in Baragana et aL, PNAS, 2019, 116 (4), 7015-7020 and will be summarised below.
The C. parvum KRS had 45 residues removed at the N-terminus. All amplicons were cloned into the pAVA0421 expression vector using the ligation independent cloning (LIC) method. Recombinant plasmids were transformed into Rosetta BL21(DE3) competent cells and plated on LB agar plates with ampicillin, carbenicillin, and chloramphenicol selection. Clones were expressed using previously reported autoinduction methods and scaled to 2-litre cultures in a shake flasks. Cell pellets were harvested and lysed with 100 mM HEPES/150 mM NaCl/5% Glycerol/20 mM imidazole/0.5 mM TCEP pH 7.5/DNase/Complete inhibitor tablets) using a Cell Disrupter (Constant Systems) at 30 KPSI and centrifuged at 40,000 g for 20 min remove cell debris. The supernatant was loaded onto a 5 ml HiTrap Ni HP column that had been equilibrated with Buffer A (100 mM HEPES/150 mM NaCl/5% Glycerol/20 mM imidazole/0.5 mM TCEP pH 7.5) at 5 ml/min using an AKTA Pure system. Once loaded the column was washed with 10 column volumes of buffer A. A 5% step of Buffer B (100 mM HEPES/150 mM NaCl/5% Glycerol/500 mM imidazole/0.5 mM TCEP pH 7.5) was then used to wash off His-rich contaminating proteins. A linear gradient of 5-50% B was used to elute the protein. Approximately 287 mg of protein was present in the fractions containing the CpKRS protein. The sample was then concentrated to approximately 30 ml, passed through a 0.2 μm filter, before loading onto a XK26/60 Superdex 200 column using an AKTA Pure system at 4° C. at 2 ml/min 10 ml at a time. The eluted protein was pooled then frozen at −80° C. The concentration of the protein was 1.3 mg/ml. Sometimes the protein was cleaved with PreScission protease overnight, a second Ni column performed in flow through mode to removed uncleaved protein. GST beads were then added to remove the PreScission Protease. The protein was then gel filtered as descripted above.
Assay Method for Measurement of In Vitro Inhibition of Cryptosporidium lysyl tRNA Synthetase (KRS)
Potency of compounds was determined in 10 points dose-response inhibition curves. Compounds were transferred into 384-well clear bottom plates (Greiner Bio-One, 781101) using an Echo 550 acoustic dispenser (Labcyte). Using an automatic liquid dispenser, 50 μL reaction mixes were prepared by adding 25 μL of substrate mix into all wells followed by the addition of 25 μL enzyme mix into compounds and no inhibition control wells (final reaction: 100 mM HEPES, pH 7.4, 20 mM MgCl2, 1 mM DTT, 500 μM ATP, 1.2 mM L-Lysine, 300 nM CpKRS and 0.5 U/mL Pyrophosphatase). Complete inhibition control reactions were performed in the absence of enzyme and the plates were incubated at room temperature for 8 h. Reactions were stopped by the addition of Biomol green (50 μL: Enzo Life Sciences) with the amount of free phosphate detected by measuring absorbance (650 nm) after 20 min further incubation (BMG Pherastar plate reader). Counter screen assays to eliminate direct inhibition of pyrophosphatase were performed using 0.5 U/mL pyrophosphatase and 3 μM pyrophosphate as substrate in the same assay buffer (100 mM HEPES, pH 7.4, 20 mM MgCl2, 1 mM DTT) for 8 hours at room temperature. Biomol green was added and incubated for 20 min before detection as above. Samples were run in duplicate and data was processed and analysed using ActivityBase (IDBS).

Sequence of Cryptosporidium parvum lysyl t-RNA synthetase (Cp KRS) (Q5CR27 entry or part of it): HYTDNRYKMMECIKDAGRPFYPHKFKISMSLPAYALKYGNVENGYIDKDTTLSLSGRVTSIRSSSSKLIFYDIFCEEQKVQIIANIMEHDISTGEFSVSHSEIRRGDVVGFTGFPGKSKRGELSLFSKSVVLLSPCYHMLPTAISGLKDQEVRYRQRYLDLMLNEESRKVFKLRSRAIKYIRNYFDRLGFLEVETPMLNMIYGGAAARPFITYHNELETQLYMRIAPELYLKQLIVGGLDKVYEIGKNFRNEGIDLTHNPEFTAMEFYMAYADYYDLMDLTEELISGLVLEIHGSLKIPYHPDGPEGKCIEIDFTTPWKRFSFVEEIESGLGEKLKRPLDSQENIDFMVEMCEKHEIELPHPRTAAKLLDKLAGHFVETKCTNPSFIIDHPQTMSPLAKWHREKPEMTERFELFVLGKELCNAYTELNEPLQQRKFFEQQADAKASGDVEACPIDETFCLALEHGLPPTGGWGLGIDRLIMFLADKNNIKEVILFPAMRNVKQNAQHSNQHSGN

| IC50 [nM] | Compound |
| --- | --- |
| 2510 | Nc1nc2c(c(C(F)(F)F)n1)C(=O)N(CC1CCCC3(CC3)C1)C2 (racemic) [Compound 4, 2-amino-6-(spiro[2.5]octan-5-ylmethyl)-4-(trifluoromethyl)-6,7-dihydro-5H-pyrrolo[3,4-d]pyrimidin-5-one] |
| 794 | Nc1nc2c(c(C(F)(F)F)n1)C(=O)N(C[C@@H]1CCC[C@H](C(F)(F)F)C1)C2 [Compound 1, 2-amino-4-(trifluoromethyl)-6-(((1R,3S)-3-(trifluoromethyl)cyclohexyl)methyl)-6,7-dihydro-5H-pyrrolo[3,4-d]pyrimidin-5-one] |
| 794 | Cc1nc(N)nc2c1C(=O)N(C[C@@H]1CCC[C@H](C(F)(F)F)C1)C2 [Compound 2, 2-amino-4-methyl-6-(((1R,3S)-3-(trifluoromethyl)cyclohexyl)methyl)-6,7-dihydro-5H-pyrrolo[3,4-d]pyrimidin-5-one] |
| 1000 | Nc1nc2c(c(C(F)F)n1)C(=O)N(C[C@@H]1CCC[C@H](C(F)(F)F)C1)C2 [Compound 3, 2-amino-4-(difluoromethyl)-6-(((1R,3S)-3-(trifluoromethyl)cyclohexyl)methyl)-6,7-dihydro-5H-pyrrolo[3,4-d]pyrimidin-5-one] |
